Three compounds from patent US11674136B2, “DNA-templated macrocycle library” (President and Fellows of Harvard College, priority 2018, dated 2023) can be followed below.

The target in this experiment is T1, Recombinant human N-His6-IDE42-1019 (Homo sapiens, UniProt P14735).
T1 construct: Recombinant human N-His6-IDE42-1019(R&D Systems); His6 (N); purchased R&D Systems
T1 sequence (P14735 42-1019): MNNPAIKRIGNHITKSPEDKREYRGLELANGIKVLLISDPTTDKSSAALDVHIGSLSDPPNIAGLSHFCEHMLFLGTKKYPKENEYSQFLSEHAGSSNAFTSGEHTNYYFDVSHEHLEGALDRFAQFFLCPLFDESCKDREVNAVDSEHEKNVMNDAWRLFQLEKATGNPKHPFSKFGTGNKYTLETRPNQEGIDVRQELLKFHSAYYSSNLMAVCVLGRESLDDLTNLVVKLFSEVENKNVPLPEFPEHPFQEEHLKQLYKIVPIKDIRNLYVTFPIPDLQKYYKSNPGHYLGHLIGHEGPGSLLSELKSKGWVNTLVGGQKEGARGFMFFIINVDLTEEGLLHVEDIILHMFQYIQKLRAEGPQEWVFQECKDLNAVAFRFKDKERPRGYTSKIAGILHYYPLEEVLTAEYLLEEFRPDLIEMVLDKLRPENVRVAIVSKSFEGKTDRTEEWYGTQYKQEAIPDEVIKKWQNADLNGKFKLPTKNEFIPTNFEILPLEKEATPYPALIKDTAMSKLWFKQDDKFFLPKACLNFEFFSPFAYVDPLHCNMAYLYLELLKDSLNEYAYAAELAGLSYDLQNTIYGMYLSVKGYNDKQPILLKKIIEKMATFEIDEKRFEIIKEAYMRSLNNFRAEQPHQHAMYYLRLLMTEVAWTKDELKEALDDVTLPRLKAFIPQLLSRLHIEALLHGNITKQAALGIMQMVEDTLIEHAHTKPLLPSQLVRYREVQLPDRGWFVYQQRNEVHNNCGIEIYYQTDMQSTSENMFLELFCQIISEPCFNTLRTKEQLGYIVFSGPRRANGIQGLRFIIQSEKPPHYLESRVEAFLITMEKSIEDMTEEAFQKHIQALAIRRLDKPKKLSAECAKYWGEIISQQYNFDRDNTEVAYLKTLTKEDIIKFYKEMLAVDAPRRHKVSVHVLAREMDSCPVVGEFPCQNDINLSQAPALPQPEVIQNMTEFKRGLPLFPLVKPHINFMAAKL
Put plainly: IDE inhibition assay with fluorogenic decapeptide substrate Mca-RPPGFSAFK(Dnp)-OH. Type of experiment: biochemical. As to conditions: fluorogenic decapeptide cleavage assay; for IC50: DNA-free macrocycle; for IDE inhibition, potency in words: comparison with reference inhibitors. On the procedure:
Recombinant human N-His6-IDE42-1019(R&D Systems) was assayed using the fluorophore/quencher-tagged peptide substrate Mca-RPPGFSAFK(Dnp)-OH (R&D) according to the manufacturer's instructions and using the recommended buffer 50 mM Tris, pH 7.5, 1 M NaCl (fluorophore Mca=(7-methoxycourmarin-4-yl)acetyl and quencher Dnp=2,4-dinitrophenyl). The enzyme mixture (48 μL) was transferred to a 96-well plate and combined with 2 μL of inhibitor in DMSO solutions, as 3-fold dilution series. The mixtures were allowed to equilibrate for 5 minutes and the enzymatic reaction was started by addition of substrate peptide in assay buffer (50 μL), immediately mixed by orbital shaking, and monitored on a fluorescence plate reader (excitation at 320 nm, emission at 405 nm). […] Inhibitor 6bK was used as a positive control in each assay, and error bars correspond to the standard error.

Entries after “also recorded” stand apart in the source; their conditions may differ.

On to `NCCOCCNC(=O)C1Cc2ccccc2CNC(=O)CC(Cc2ccccc2)NC(=O)C(Cc2ccco2)NC(=O)CN2CCN(CC2)C(=O)C=CC(=O)N1` (stereo not drawn) [cis-CODVV], for which the IC50 is 30 µM.
Take `CC1NC(=O)C=CC(=O)NC(C(=O)NCCOCCN)Cc2cccc(c2)CNC(=O)C(Cc2ccc(C(=O)c3ccccc3)cc2)NC(=O)C(CC2CCCCC2)NC1=O` (stereo not drawn) [trans-DJPM]: the IC50 is 0.05 µM; the “IDE inhibition, potency in words” value is “equipotent to the structurally similar trans-6bK and trans-6bA macrocycles; also recorded: comparable in potency to our previously optimized 20-membered inhibitor 6bK; also recorded: equipotent to the previously optimized IDE inhibitor 6bK”.
Consider `NCCOCCNC(=O)C1CCNC(=O)C=CC(=O)NC(Cc2ccccc2C(F)(F)F)C(=O)NC(CC2CCCCC2)C(=O)NC(Cc2ccc(C(=O)c3ccccc3)cc2)C(=O)N1` (stereo not drawn) [cis-DJIR], for which the IC50 came to 0.04 µM; the “IDE inhibition, potency in words” value was “equipotent to the structurally similar trans-6bK and trans-6bA macrocycles; also recorded: at least as potent that 6bK”.
